Experimental data: paper PMC7824787, “Design, Synthesis and In Vitro Investigation of Novel Basic Celastrol Carboxamides as Bio-Inspired Leishmanicidal Agents Endowed with Inhibitory Activity against Leishmania Hsp90” (Biomolecules, 2021)

System: L. infantum promastigotes
Assay: Morphological differentiation of Leishmania promastigotes
Type: cell-based, Leishmania infantum
Conditions: 50 ng/mL, 23 °C, 48 h (Figure 6)
Description: L. infantum promastigotes were diluted in complete medium to 4 × 10^7 parasites/mL and 250 µL of the suspension were seeded into the 24 wells plates and incubated at 23 °C in the presence of geldanamycin, CE or compound 2 at the final concentration of 50 ng/mL. Cultures without drugs incubated at 23 °C or at 37 °C were used as negative and positive control, respectively. After 24 or 48 h of incubation, parasite morphology was evaluated by optical microscopy at 100× (Eclipse Ti Series, Nikon, Minato, Tokyo, Japan) on Giemsa stained smears (a mixture of eosin, methylene blue and Azure-B diluted 1:10). The percent of round promastigotes in treated and non-treated cells was determined. Images were taken at the same magnification by using a digital camera (Nikon Digital Sight). About 500 promastigotes were counted in 4 random fields.
The compounds were incubated (23 °C, physiological pH) with L. infantum promastigotes at a sub-IC50 concentration of 50 ng/mL. […] After 24 h and 48 h the presence of round, amastigote-like cells, was monitored (Figure 6). A negative and positive control experiment (NC and PC, Figure 6a,b) were also conducted growing the promastigotes at 23 °C and 37 °C, respectively.

| SMILES | round amastigote-like cells (morphological differentiation) |
| --- | --- |
| CC1=C(O)C(=O)C=C2C1=CC=C1[C@@]2(C)CC[C@@]2(C)[C@@H]3C[C@](C)(C(=O)NCCN4CCCC4)CC[C@]3(C)CC[C@]12C [compound 3, (2R,4aS,6aS,12bR,14aS,14bR)-10-hydroxy-2,4a,6a,9,12b,14a-hexamethyl-11-oxo-N-(2-(pyrrolidin-1-yl)ethyl)-1,2,3,4,4a,5,6,6a,11,12b,13,14,14a,14b-tetradecahydropicene-2-carboxamide] | neither CE nor compound 3 produced this effect |
| CC1=C(O)C(=O)C=C2C1=CC=C1[C@@]2(C)CC[C@@]2(C)[C@@H]3C[C@](C)(C(=O)O)CC[C@]3(C)CC[C@]12C [CE, celastrol] | neither CE nor compound 3 produced this effect |
